Data on three molecules can be found in patent US20040242870A1, “Antiviral methods and compounds” (priority 2000, published 2004).

In data set [1] the test system is PBMCs. The data set can be described thus: PBMC apoptosis by flow cytometry (APO-BRDU kit). The format is cell-based, Human. The protocol: Flow cytometry studies were carried out on PHA/IL-2 induced PBMCs treated for 6 days with the various test compounds. Prior to flow cytometry the PBMCs were washed, counted and 1×10^6 cells resuspended in PBS and stained for CD4 or CD8 surface markers using anti-CD4.PE or CD8.PE (both from PharMingen) for 30 min at 4° C. The PBMC were then washed, fixed (Cytofix) and permeabilized (Cytoperm) followed by staining for apoptosis-related DNA damage. Initial experiments used the BrdU Flow Kit from PharMigen (2354KK). […] For both kits, manufacturers instructions were followed for staining and analysis of the samples. Following the appropriate staining protocol the cells were analyzed using a Becton Dickinson (Bedford, Mass.) FACSSort
In another series of experiments, the IG compounds and cannabidiol treated cells were assessed for the induction of apoptosis (see Tables 8 and 9). […] As IL-2 is an essential component for maintaining the health of PHA induced PBMCs, a second focus of these studies focuses on the effect of the compounds in the absence of IL-2.
(A flow cytometer gives signals particle by particle.)

Data set [2] concerns HIV-1 strain RoJo. Put plainly: PBMC time-of-addition assay (RT in cell-free supernatant at 6 days). Type of data set: cell-based. How it is done:
Peripheral blood monocular cells (PBMCs) were obtained from normal hepatitis and HIV-1 negative donors by ficoll hypaque gradient separation. The mononuclear cells were washed to remove residual separation media, counted, viability determined and resuspended in RPMI 1640 medium supplemented with 15 % FBS (heat inactivated), 2 mM L-glutamine, 100 U/mL penicillin, 100 μg/mL streptomycin, and 10 μg/mL gentamycin with 2 μg/mL phytohemagluttin (PHA) at 1×10^6 cells/mL. The cells were cultured for 48 to 72 h at 37° C., 5% CO2. Following incubation, cells were collected by centrifugation, washed and resuspended in RPMI 1640 supplemented with 15% FBS (heat inactivated), 2 mM L-glutamine, 100 U/mL penicillin, 100 μg/mL streptomycin, and 10 μg/mL gentamycin with 20 U/mL recombinant IL-2 (R & D Systems, Minneapolis, Minn.). IL-2 was included in the culture medium to maintain the cell division initiated by the PHA mitogenic stimulation, and promote optimal growing conditions for the PBMCs. The cultures were then maintained until use by ½ culture volume change with fresh IL-2 containing medium every 3 days.
(§1) Human peripheral blood mononuclear cells from a minimum of 2 donors, that have been blasted with PHA and IL-2, were counted, viability determined by Trypan Blue dye exclusion and mixed in equal ratios. Pooled donors were used to minimize the variability observed between individual donors which results from quantitative and qualitative differences in HIV infection and overall response to the PHA and IL-2 of primary lymphocyte populations. The cells were resuspended at 1×10^6 cells/mL in RPMI 1640 without phenol red supplemented with 15% Fetal Bovine Serum (heat inactivated), 2 mM L-glutamine, 100 U/mL penicillin, 100 μg/mL streptomycin, 10 μg/Ln gentamycin and IL-2 (20 U/mL, R&D Systems, Minneapolis, Minn.). Fifty microliters of cells were then distributed to the inner 60 wells of a 96 well round bottom microtiter culture plate in a standard format developed by the Infectious Disease Research department of Southern Research Institute. Each plate contains cell control wells (cells only), virus control wells (cells plus virus), and experimental wells (drug plus cells plus virus). Alternatively, cells were cultured in T25 cm^2 or T75 cm^2 tissue culture flasks at a starting density of 1×10^6 cells per ml. Serially diluted compounds were added to the microtiter plate or tissue culture flask followed by the appropriate pre-titered strain of HIV-1. For virus replication inhibition experiments the HIV-1 strain RoJo was used. This is a low passage presumable subtype B pediatric isolate with a syncytium inducing (SI) phenotype in MT-2 cells isolated by Southern Research Institute personnel. All samples were assayed in triplicate where possible with an accompanying determination of compound toxicity. The final volume per well in the microtiter plates was 200 μL. The final volume in the tissue culture flask varied depending upon experimental design and flask size. Assays were incubated for 6 days in a humidified atmosphere at 37° C., 5% CO2, after which supernatants were collected, for analysis of RT activity and cell viability by MTS dye reduction. Culture were also examined microscopically, any abnormalities noted, and in the case of tissue culture flasks cell counts and viability determined by Trypan Blue Dye exclusion.
Time-of-addition assays were performed with PBMCs in two ways. For both assays, PBMCs were isolated and cultured under the conditions as described above. Time-of-addition assays were carried out in either a tissue culture flask format (T-75 cm^2) or in microtiter wells. In both cases due to the lack of plastic adherence and heterogeneity of the PBMC population for susceptibility to infection, it was not possible to use complete removal of virus following a timed adsorption to synchronize the infection and limit the assay to a single round of infection. […]

Data set [3] deals with PBMCs. The data set can be described thus: PBMC cytotoxicity in time-of-addition assay. Type of data set: cell-based, Human.
Source text: as §1
Time-of-addition assays were performed with PBMCs in two ways. For both assays, PBMCs were isolated and cultured under the conditions as described above. Time-of-addition assays were carried out in either a tissue culture flask format (T-75 cm^2) or in microtiter wells. In both cases due to the lack of plastic adherence and heterogeneity of the PBMC population for susceptibility to infection, it was not possible to use complete removal of virus following a timed adsorption to synchronize the infection and limit the assay to a single round of infection. Therefore, serial washing by partial removal of the media was used to reduce the concentration of virus and compound (if required) in the assay. Compound addition in relationship to antiviral activity was either assessed over a short addition interval immediately before or after virus addition or for up to 72 h post infection. For all assays virus replication was assessed at 6 days of culture by determining RT expression in cell-free supernatants. In the tissue culture flask format cells were counted and Trypan Blue Dye exclusion used to monitor compound cytotoxicity. Cell viability in the 96 well microtiter plate format was determined by MTS dye reduction. AZT was used as a positive control.
At assay termination the assay plates were stained with the soluble tetrazolium-based dye MTS (CellTiter96® Reagent Promega) to determine cell viability and quantify compound toxicity. MTS is metabolized by the mitochondria enzymes of metabolically active cells to a soluble formazan product, allowing the rapid quantitative analysis cell viability and compound cytotoxicity. […] At termination of the assay 20 μL of MTS reagent was added per well and incubated for 4 h at 37° C. […]

Data set [4] relates to HIV-1. Put plainly: HeLa CD4 LTR β-gal HIV-1 attachment assay. The format is cell-based. The settings on record: Human immunodeficiency virus 1, HeLa, read-out: IC50. How it is done: The attachment assay was performed with the HeLa CD4 LTR , β-gal cells available from the AIDS Research and Reference Reagent Repository. […] HeLa CD4 LTR β-gal cells express cell surface CD4 and contain an LTR β-galactosidase reporter construct. Upon infection either the Tat protein incorporated into the virion or new Tat produced following virus integration and transcription trans-activates the LTR β-gal reporter, leading to expression of the β-galactosidase enzyme. HeLa CD4 LTR β-gal cells are routinely cultured with the required selection antibiotics and screened for mycoplasma contamination. Twenty-four h prior to initiation of the assay cells were trypsinized, counted and 1×10^4 cells placed in a 0.2 cm well in media without selection antibiotics. […] A known titer of virus was then added to the wells and the incubation continued for 1 h. At the end of the incubation the wells were washed 6 times with media and the culture continued for 48 h. At 48 h the wells were washed one time with PBS and β-galactosidase enzyme expression determined by chemiluminescence per manufacturers instructions (Tropix Gal-screen™, Tropix, Bedford, Mass.). Compound toxicity was monitored on sister plates using MTS dye reduction.

Data set [5] deals with HIV-1. The data set can be described thus: HeLa CD4 LTR β-gal/HL2/3 HIV-1 fusion assay. The conditions noted are these: Human immunodeficiency virus 1, HL2/3, read-out: Antiviral Activity IC50. Type of data set: cell-based. From the text:
This assay uses the HeLa CD4 LTR β-gal and HL2-3 cells available from the AIDS Research and Reference Reagent Repository. The HL2/3 are derived from HeLa cells and engineered to express HIV gp120 on their cell surface and Tat protein in their cytoplasma. Thus following gp 120/CD4/coreceptor-mediated fusion; cytoplasmic mixing results in the HL2/3 cell-derived Tat trans-activation of the β-galactosidase reporter. […] Twenty-four h prior to initiation of the assay cells were trypsinized, counted and 5×10^3 cells placed in a 0.2 cm well in media without selection antibiotics. To initiate the fusion assay HeLa CD4 LTR β-gal (5×10^3 cells per 0.2 cm well) were incubated with compound for 1 h at 37° C. HL2/3 cells (5×10^3) were added to the 0.2 cm well and the incubation continued for 48 h. At 48 h the wells were washed 1 time with PBS and β-galactosidase enzyme expression determined by chemiluminescence per manufacturers instructions (Tropix Gal-screen™, Tropix, Bedford, Mass.). Compound toxicity was monitored on sister plates using MTS dye reduction.

In data set [6] the test system is HeLa CD4 LTR β-gal cells. Put plainly: Compound toxicity in attachment assay (MTS dye reduction, sister plates). Type of data set: cell-based. How it is done: At assay termination the assay plates were stained with the soluble tetrazolium-based dye MTS (CellTiter96® Reagent Promega) to determine cell viability and quantify compound toxicity. MTS is metabolized by the mitochondria enzymes of metabolically active cells to a soluble formazan product, allowing the rapid quantitative analysis cell viability and compound cytotoxicity. […] At termination of the assay 20 μL of MTS reagent was added per well and incubated for 4 h at 37° C. Adhesive plate sealers were used in place of the lids, the sealed plate was inverted several times to mix the soluble formazan product and the plate was read spectrophotometrically at 490 nm with a Molecular Devices Vmax plate reader.
The attachment assay was performed with the HeLa CD4 LTR , β-gal cells available from the AIDS Research and Reference Reagent Repository. […] HeLa CD4 LTR β-gal cells express cell surface CD4 and contain an LTR β-galactosidase reporter construct. Upon infection either the Tat protein incorporated into the virion or new Tat produced following virus integration and transcription trans-activates the LTR β-gal reporter, leading to expression of the β-galactosidase enzyme. HeLa CD4 LTR β-gal cells are routinely cultured with the required selection antibiotics and screened for mycoplasma contamination. Twenty-four h prior to initiation of the assay cells were trypsinized, counted and 1×10^4 cells placed in a 0.2 cm well in media without selection antibiotics. Media was removed at 24 h and compound in media placed on the cells and incubated for 15 to 30 min at 37° C. A known titer of virus was then added to the wells and the incubation continued for 1 h. At the end of the incubation the wells were washed 6 times with media and the culture continued for 48 h. At 48 h the wells were washed one time with PBS and β-galactosidase enzyme expression determined by chemiluminescence per manufacturers instructions (Tropix Gal-screen™, Tropix, Bedford, Mass.). Compound toxicity was monitored on sister plates using MTS dye reduction.
(In general: Formazan colour is commonly taken as a measure of viable cells.)

[7] abbreviates: IL-2 supplemented media, 1 μM, HIV +.
The mark [8] stands for this setting: IL-2 supplemented media, 1 μM, HIV −.

Values after ≈ are worked out from the molar mass of the structure shown. A value given as a limit tells only on which side of the number the result lay.

For the molecule `Cc1cn([C@H]2C[C@H](N=[N+]=[N-])[C@@H](CO)O2)c(=O)[nH]c1=O` [AZT, reference compound], the “% Apoptosis” value in data set [1] (IL-2 deficient media, 1 μM, HIV +) turned out to be 13.7%; in data set [1] (IL-2 deficient media, 1 μM, HIV −), 15.1%; in data set [1] (setting [7]), 13.3%; in data set [1] (setting [8]) it was 15.0%. Moreover, the “Fold Change” value in data set [1] (setting [7]) is reported as 0.8; in data set [1] (setting [8]) it was 1.3. Besides, the enhancement of activity in data set [2] (4 h preincubation) amounted to 4.6 fold. For the same molecule, the IC50 (commonly the midpoint of a concentration-inhibition curve) in data set [2] (pre-treat 0 h prior to infection) came out at 1.3 nM; in data set [2] (pre-treat 2 h prior to infection), 1.1 nM; in data set [2] (pre-treat 4 h prior to infection), 1.1 nM; in data set [2] (pre-treat 24 h prior to infection) it was 3.1 nM. Further, the TC50 in data set [3] (6 h post infection), in data set [3] (at infection) and in data set [3] (−4 h pre (relative to infection)) was above 4 µM in each case.

Turning to `COc1cc(-c2ccc(/N=N/c3ccc4c(S(=O)(=O)O)cc(S(=O)(=O)O)c(N)c4c3O)c(OC)c2)ccc1/N=N/c1ccc2c(S(=O)(=O)O)cc(S(=O)(=O)O)c(N)c2c1O` [CSB, Chicago Sky Blue, reference compound], the IC50 in data set [4] (Experiment 1, pretreat 0 h) was 1.1 µg/mL (≈ 1.22 µM); in data set [4] (Experiment 1, pretreat 4 h) it was 1.71 µg/mL (≈ 1.89 µM); in data set [4] (Experiment 1, pretreat 24 h), 1.3 µg/mL (≈ 1.44 µM); in data set [4] (Experiment 2, pretreat 0 h), 0.17 µg/mL (≈ 0.188 µM); in data set [4] (Experiment 2, pretreat 4 h) it was 2.11 µg/mL (≈ 2.33 µM); in data set [4] (Experiment 2, pretreat 24 h), 4.7 µg/mL (≈ 5.19 µM). For the same molecule, the IC50 in data set [5] worked out at 1.75 µg/mL (≈ 1.93 µM). Also, the TC50 was above 10 µg/mL in data set [6] (Experiment 1, pretreat 0 h); above 10 µg/mL in data set [6] (Experiment 1, pretreat 4 h); above 10 µg/mL in data set [6] (Experiment 1, pretreat 24 h); above 10 µg/mL in data set [6] (Experiment 2, pretreat 0 h); above 10 µg/mL in data set [6] (Experiment 2, pretreat 4 h); above 10 µg/mL in data set [6] (Experiment 2, pretreat 24 h).

B1: FAS: positive control (kit and Fas ligand) of the apoptosis procedure (protein, UniProt P48023 130-281, looked up)
Tumor necrosis factor ligand …: QIGHPSPPPEKKELRKVAHLTGKSNSRSMPLEWEDTYGIVLLSGVKYKKGGLVINETGLYFVYSKVYFRGQSCNNLPLSHKVYMRNSKYPQDLVMMEGKMMSYCTTGQMWARSSYLGAVFNLTSADHLYVNVSELSLVNFEESQTFFGLYKL
With B1, the “% Apoptosis” value was found to be 16.2% in data set [1] (IL-2 deficient media, HIV +, positive control, concentration not given); 13.7% in data set [1] (IL-2 deficient media, HIV −, positive control, concentration not given); 17.3% in data set [1] (IL-2 supplemented media, HIV +, positive control, concentration not given); 17.8% in data set [1] (IL-2 supplemented media, HIV −, positive control, concentration not given).
